Source: paper PMC9926234, “Iterative computational design and crystallographic screening identifies potent inhibitors targeting the Nsp3 macrodomain of SARS-CoV-2” (Proceedings of the National Academy of Sciences of the …, 2023)
Like-named read-outs stand apart in the source and are kept apart here.

How the values were obtained:
SARS-CoV-2 NSP3 Mac1 [1] = target: T1, SARS-CoV-2 NSP3 Mac1 (Severe acute respiratory syndrome coronavirus 2, UniProt P0DTD1); format: binding; set-up: contains a conserved macrodomain enzyme (Mac1); conditions: for Spearman est (compound concentration vs apparent Tm): DSF dose responsiveness, 1 µM nsp3 mac1, adj p given
Protocol: DSF and associated compound handling was performed as described ([12]), with 5 µM dye “Fluorescent Yellow” (Jacquard iDye Cat #JID1405) used in place of SYPRO Orange. Compounds were tested in triplicate, at seven concentrations in two-fold serial dilutions, at a top concentration of either 1,000 or 100 μM. To minimize experimental noise arising from plate location-based effects on Tma, all concentrations and replicates for each compound were tested within a single region of the microtiter plates, including a DMSO-only control from which ΔTmas were calculated for that compound. […] For each compound, to determine statistical significance of the dose responsive thermal shift, the Spearman’s coefficient was calculated between compound concentration and ΔTma.

SARS-CoV-2 NSP3 Mac1 [2] = target: T1, SARS-CoV-2 NSP3 Mac1; format: binding; conditions: for Refined occupancy: ligand occupancy after refinement (phenix.refine); for HIT*: true hit = binding in crystallographic soaking or the HTRF-based binding assay
[3] = PanDDA 1-BDC of the event, compound stock 100 mM, Echo dispense volume 80 nl
[4] = PanDDA event map, 1 minus background density correction, crystal soaking of Mac1
[5] = crystal soak, compound stock 100 mM, Echo dispense volume 80 nl
[6] = ligand modeled in structure, compound stock 100 mM, Echo dispense volume 80 nl
[7] = PanDDA event map 1-BDC, crystal soak, Compound_concentration 100 mM, PanDDA run dmso_34 or nohits_35 per dataset
[8] = crystal soak, Compound_concentration 100 mM, Echo dispense 40 nl, PanDDA run dmso_34 or nohits_35 per dataset
[9] = maximal thermal upshift vs DMSO control

SMILES: O=C(O)CC1Cc2ccccc2N1C(=O)c1ccc(NC(=O)NC2CC2)cc1 (stereo not drawn) [8539_0039]
- Spearman est (compound concentration vs apparent Tm) (SARS-CoV-2 NSP3 Mac1 [1]): 0.09
- DSF max dTma (SARS-CoV-2 NSP3 Mac1 [1]; maximal thermal upshift): 2.09 ˚C

SMILES: COC(=O)C1Cc2c(O)cccc2C1NC(=O)c1ccc(NC(=O)NC2CC2)cc1 (stereo not drawn) [8539_0076]
- Spearman est (compound concentration vs apparent Tm) (SARS-CoV-2 NSP3 Mac1 [1]): −0.19
- DSF max dTma (SARS-CoV-2 NSP3 Mac1 [1]; maximal thermal upshift): 0 ˚C

SMILES: COC(=O)C1(CO)CCN(c2ncnc3[nH]c4cc(F)ccc4c23)C1 (stereo not drawn) [Compound Z9556]
- 1-BDC (SARS-CoV-2 NSP3 Mac1 [2]; [3]): 0.1
- 1-BDC (PanDDA) (SARS-CoV-2 NSP3 Mac1 [2]; [4]): 0.1
- PanDDA hit? (SARS-CoV-2 NSP3 Mac1 [2]; [5]): TRUE
- Modeled? (SARS-CoV-2 NSP3 Mac1 [2]; [6]): TRUE
- Refined occupancy (SARS-CoV-2 NSP3 Mac1 [2]; crystal soaking of Mac1): 20

SMILES: O=C(O)CC1CN(c2ncnc3[nH]c4ccccc4c23)CCO1 (stereo not drawn) [Compound Z9596]
- 1-BDC (SARS-CoV-2 NSP3 Mac1 [2]; PanDDA 1-BDC of the event, compound stock 100 mM, Echo dispense volume 40 nl): 0.06
- 1-BDC (SARS-CoV-2 NSP3 Mac1 [2]; [3]): 0.09
- 1-BDC (PanDDA) (SARS-CoV-2 NSP3 Mac1 [2]; [4]): 0.06
- PanDDA hit? (SARS-CoV-2 NSP3 Mac1 [2]; crystal soak, compound stock 100 mM, Echo dispense volume 40 nl): TRUE
- PanDDA hit? (SARS-CoV-2 NSP3 Mac1 [2]; [5]): TRUE
- Modeled? (SARS-CoV-2 NSP3 Mac1 [2]; ligand modeled in structure, compound stock 100 mM, Echo dispense volume 40 nl): TRUE
- Refined occupancy (SARS-CoV-2 NSP3 Mac1 [2]; crystal soaking of Mac1): 12

SMILES: O=C1CCCN1CCSc1ncnc2[nH]cnc12 [Compound Z9920]
- 1-BDC (SARS-CoV-2 NSP3 Mac1 [2]; PanDDA 1-BDC (background density correction) of the event, crystal soak 100 mM, PanDDA run dmso_34): 0.21
- 1-BDC (SARS-CoV-2 NSP3 Mac1 [2]; [4]): 0.21
- PanDDA hit? (SARS-CoV-2 NSP3 Mac1 [2]; crystal soak, compound concentration 100 mM, PanDDA run dmso_34, series docking_lead-like_1): TRUE
- Modeled? (SARS-CoV-2 NSP3 Mac1 [2]; ligand modeled in the crystal structure, crystal soak 100 mM, PanDDA run dmso_34): TRUE
- Refined occupancy (SARS-CoV-2 NSP3 Mac1 [2]; crystal soaking of Mac1): 42

SMILES: O=C1CC2(CC2)C(CSc2n[nH]c(-c3ccccn3)n2)O1 (stereo not drawn) [FRESH00010267028]
- Spearman est (compound concentration vs apparent Tm) (SARS-CoV-2 NSP3 Mac1 [1]): 0.52
- DSF max dTma (SARS-CoV-2 NSP3 Mac1 [1]; maximal thermal upshift): 0.32 ˚C

SMILES: O=S1(=O)CCC2(CCCN(c3ncnc4[nH]c5cc(F)ccc5c34)C2)C1 (stereo not drawn) [LL1_0010]
- Spearman est (compound concentration vs apparent Tm) (SARS-CoV-2 NSP3 Mac1 [1]): 0.3
- DSF max dTma (SARS-CoV-2 NSP3 Mac1 [1]; maximal thermal upshift): 0.68 ˚C

SMILES: NC(=O)C1CCCN(c2ncnc3[nH]c4cc(F)ccc4c23)C1 (stereo not drawn) [LL1_0016]
- Spearman est (compound concentration vs apparent Tm) (SARS-CoV-2 NSP3 Mac1 [1]): 0.18
- DSF max dTma (SARS-CoV-2 NSP3 Mac1 [1]; maximal thermal upshift): 0.6 ˚C

SMILES: O=C(O)[C@@H]1[C@@H]2CCN(c3ncnc4[nH]c5cc(F)ccc5c34)C[C@@H]21 [LL114_0037]
- 1-BDC (SARS-CoV-2 NSP3 Mac1 [2]; [3]): 0.17
- 1-BDC (SARS-CoV-2 NSP3 Mac1 [2]; [7]): 0.17
- 1-BDC (PanDDA) (SARS-CoV-2 NSP3 Mac1 [2]; [4]): 0.17
- PanDDA hit? (SARS-CoV-2 NSP3 Mac1 [2]; [8]): TRUE
- PanDDA hit? (SARS-CoV-2 NSP3 Mac1 [2]; [5]): TRUE
- Modeled? (SARS-CoV-2 NSP3 Mac1 [2]; [6]): TRUE
- Refined occupancy (SARS-CoV-2 NSP3 Mac1 [2]; crystal soaking of Mac1): 34

SMILES: OCC1CN(c2ncnc3[nH]c4cc(F)ccc4c23)CC2(CCC2)O1 (stereo not drawn) [LL123_0025]
- 1-BDC (SARS-CoV-2 NSP3 Mac1 [2]; [3]): 0.1
- 1-BDC (SARS-CoV-2 NSP3 Mac1 [2]; [7]): 0.09
- 1-BDC (PanDDA) (SARS-CoV-2 NSP3 Mac1 [2]; [4]): 0.07
- 1-BDC (SARS-CoV-2 NSP3 Mac1 [2]; PanDDA event map, crystal soak, Compound_concentration 100 mM, Echo_dispense_volume 40 nl): 0.07
- PanDDA hit? (SARS-CoV-2 NSP3 Mac1 [2]; [8]): TRUE
- PanDDA hit? (SARS-CoV-2 NSP3 Mac1 [2]; crystal soak, Compound_concentration 100 mM, Echo_dispense_volume 40 nl, PanDDA run (background map) dmso_34, nohits_35 or nohits_62): TRUE
- PanDDA hit? (SARS-CoV-2 NSP3 Mac1 [2]; [5]): TRUE
- Modeled? (SARS-CoV-2 NSP3 Mac1 [2]; ligand modeled, crystal soak, Compound_concentration 100 mM, Echo_dispense_volume 40 nl): TRUE
- Refined occupancy (SARS-CoV-2 NSP3 Mac1 [2]; crystal soaking of Mac1): 14
- HIT* (SARS-CoV-2 NSP3 Mac1 [2]): Y

SMILES: CNc1ccc(C(=O)N2CC(C(=O)O)CC2(C)C)cn1 (stereo not drawn) [REAL250001652488]
- Spearman est (compound concentration vs apparent Tm) (SARS-CoV-2 NSP3 Mac1 [1]): 0.12
- DSF max dTma (SARS-CoV-2 NSP3 Mac1 [1]; maximal thermal upshift): 0.21 ˚C

SMILES: NC(=O)c1cc(N2CCCC[C@H]2C(=O)O)ncn1 [REAL250003324764]
- Spearman est (compound concentration vs apparent Tm) (SARS-CoV-2 NSP3 Mac1 [1]): 0.14
- DSF max dTma (SARS-CoV-2 NSP3 Mac1 [1]; maximal thermal upshift): 0.15 ˚C

SMILES: CNc1ccc(C(=O)N2CC(C(=O)O)CC23CCOCC3)cn1 (stereo not drawn) [REAL300007318908]
- Spearman est (compound concentration vs apparent Tm) (SARS-CoV-2 NSP3 Mac1 [1]): 0.29
- DSF max dTma (SARS-CoV-2 NSP3 Mac1 [1]; maximal thermal upshift): 0.04 ˚C

SMILES: FC1(F)CCCC(Nc2ncnc3[nH]ccc23)C1 (stereo not drawn) [SRH-0014]
- 1-BDC (SARS-CoV-2 NSP3 Mac1 [2]; [7]): 0.09
- PanDDA hit? (SARS-CoV-2 NSP3 Mac1 [2]; [8]): TRUE

SMILES: O=C(Cc1ccc2c(c1)CCO2)OCc1cc2ccccc2[nH]c1=O [Z0132]
- DSF max dTma (SARS-CoV-2 NSP3 Mac1 [1]; [9]): 0.21 °C

SMILES: CN(Cc1nnc2c(=O)[nH]ccn12)C(=O)COC1CC1 [Z0288]
- DSF max dTma (SARS-CoV-2 NSP3 Mac1 [1]; [9]): 0.49 °C

SMILES: Cc1cnc(COC(=O)C(C)(C)c2ccc(O)cc2)o1 [Z0329]
- DSF max dTma (SARS-CoV-2 NSP3 Mac1 [1]; [9]): 0.06 °C

SMILES: CC1CN(C(=O)CCc2nc(-c3ccncc3)no2)C1c1ccccc1 (stereo not drawn) [Z0856]
- DSF max dTma (SARS-CoV-2 NSP3 Mac1 [1]; [9]): 0.6 °C

SMILES: COc1ccc(Cl)cc1Cn1cnc2c(N)ncnc21 [Z0953]
- DSF max dTma (SARS-CoV-2 NSP3 Mac1 [1]; [9]): 0.27 °C

SMILES: O=c1[nH]ccn2c(CSc3nc4ccccc4s3)nnc12 [Z1015]
- DSF max dTma (SARS-CoV-2 NSP3 Mac1 [1]; [9]): 0.67 °C

SMILES: Nc1ncnc(SCCc2cccc(Cl)c2Cl)n1 [Z1086]
- DSF max dTma (SARS-CoV-2 NSP3 Mac1 [1]; [9]): 0.21 °C

SMILES: Cc1ccc(-c2noc(CCCSC3CCCNC3=O)n2)cc1F (stereo not drawn) [Z1121]
- DSF max dTma (SARS-CoV-2 NSP3 Mac1 [1]; [9]): 0.57 °C

SMILES: CN(Cc1cccc(O)c1)C(=O)Cc1ccncc1 [Z1186]
- DSF max dTma (SARS-CoV-2 NSP3 Mac1 [1]; [9]): 0.19 °C

SMILES: Nc1ncc(S(=O)(=O)N2CC(F)(F)C[C@H]2C(=O)O)cn1 [Z1314]
- HIT* (SARS-CoV-2 NSP3 Mac1 [2]): Y

SMILES: CC(C)c1noc(CCc2nc(-c3ccnc4[nH]ccc34)no2)n1 [Z1347]
- DSF max dTma (SARS-CoV-2 NSP3 Mac1 [1]; [9]): 0 °C

SMILES: Cc1cc(CSc2nnc3c(=O)[nH]c4ccccc4n23)no1 [Z1628]
- DSF max dTma (SARS-CoV-2 NSP3 Mac1 [1]; [9]): 0.68 °C

SMILES: Cc1ccccc1CNc1ncnc(-c2ccccc2)n1 [Z1635]
- DSF max dTma (SARS-CoV-2 NSP3 Mac1 [1]; [9]): 0.85 °C

SMILES: Cc1ccc(C(=O)N2CC[C@H](Oc3ccccc3)C2)cc1O [Z2024]
- DSF max dTma (SARS-CoV-2 NSP3 Mac1 [1]; [9]): 0.36 °C

SMILES: O=C(COC(=O)c1ccc2nsnc2c1)c1ccccc1 [Z2380]
- DSF max dTma (SARS-CoV-2 NSP3 Mac1 [1]; [9]): 0.47 °C

SMILES: Cc1ccc(CC(=O)OCc2noc(C3CC3)n2)cc1O [Z2995]
- DSF max dTma (SARS-CoV-2 NSP3 Mac1 [1]; [9]): 0.32 °C

SMILES: CN(c1cc(NC2CC2)ncn1)C1CCCN(c2cccnn2)C1 (stereo not drawn) [Z3167]
- DSF max dTma (SARS-CoV-2 NSP3 Mac1 [1]; [9]): 0.44 °C

SMILES: CN(Cc1ncc(Cl)n1C)c1ncnc(N)n1 [Z3291]
- DSF max dTma (SARS-CoV-2 NSP3 Mac1 [1]; [9]): 0.98 °C

SMILES: O=C(Nc1nc2ccccc2c(=O)[nH]1)c1cccnc1 [Z3628]
- DSF max dTma (SARS-CoV-2 NSP3 Mac1 [1]; [9]): 0.49 °C

SMILES: CN(C(=O)CN1CCNC(=O)C1)c1ccc(-c2nccs2)cc1 [Z3700]
- DSF max dTma (SARS-CoV-2 NSP3 Mac1 [1]; [9]): 0 °C
